Patent publication US6413935B1, “Induction of immune response against desired determinants” (priority 1993, dated 2002)
Values joined by “and” are separate entries in the source; they are usually repeats but may differ in a detail not shown here. Equal values may be shown once. Read-outs that look alike come from different tables or passages of the source.

Tests used:
human PBMC T cell lines = format: cell-based
DR5 = details: read-out: PADRE Class II Binding Affinities DR5, Table IX
DR1 = DR1 (Homo sapiens, UniProt P01903+P01911, A100R/D57E/F55L/F60I/F76Y/I96L/L162R/M171V/P40L/Q125E/R42F/V115G/Y59C); test: biochemical
DR3 = DR3 (Homo sapiens, UniProt P01903+P01911, A100K/A102G/A103R/A169T/F55Y/I96L/K41T/L162R/M171V/P40S/Q125H/Q178H/Q39Y/R42S/S66N/T106N/T262R/W38E/Y61H); test: biochemical; details: PADRE Class II Binding Affinities DR3, Table IX
DR4w4 = DR4w4 (Homo sapiens, UniProt P01903+P01911, A100K/A169T/F76Y/I96L/K127E/L162R/M171V/N62H/P40V/Q125Y/R42H/S133A/S149N/S66Y/V115G/V209L/W38E); test: biochemical; details: PADRE Class II Binding Affinities DR4w4
DR2w2a = DR2w2a (Homo sapiens, UniProt P01903+Q30154); test: biochemical; details: PADRE Class II Binding Affinities DR2w282, Table IX
IE^k = format: binding, mouse; details: Table III; read-out: Capacity to bind purified IE^k, IC50
IA^b = target: T1, IA^b (Mus musculus, UniProt P14434+P14483); test: biochemical; format: binding
T1 construct: Various cell lines were used as sources of purified human and mouse class II molecules; endogenous in cells; host or cells: DB27.4
T1 sequence (P14434 24-256): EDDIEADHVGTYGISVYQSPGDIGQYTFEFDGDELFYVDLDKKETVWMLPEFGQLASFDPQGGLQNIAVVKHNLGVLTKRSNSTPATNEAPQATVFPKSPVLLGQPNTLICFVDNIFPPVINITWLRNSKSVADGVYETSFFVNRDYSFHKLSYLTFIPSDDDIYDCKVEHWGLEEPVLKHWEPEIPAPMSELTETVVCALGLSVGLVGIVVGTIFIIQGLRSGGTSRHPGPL
T1 sequence (P14483 28-265): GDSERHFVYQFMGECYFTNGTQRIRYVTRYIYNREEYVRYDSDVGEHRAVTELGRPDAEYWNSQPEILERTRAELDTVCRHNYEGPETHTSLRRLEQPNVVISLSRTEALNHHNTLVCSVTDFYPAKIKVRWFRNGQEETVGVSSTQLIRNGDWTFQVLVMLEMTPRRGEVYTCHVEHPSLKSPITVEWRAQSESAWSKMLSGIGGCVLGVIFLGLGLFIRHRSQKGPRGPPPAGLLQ

IA^d = target: T2, IA^d (Mus musculus, UniProt P01921+P04228); test: biochemical; format: binding; details: Table III; read-out: Capacity to bind purified IA^d, IC50
T2 construct: Various cell lines were used as sources of purified human and mouse class II molecules; endogenous in cells; host or cells: A20
T2 sequence (P04228 24-256): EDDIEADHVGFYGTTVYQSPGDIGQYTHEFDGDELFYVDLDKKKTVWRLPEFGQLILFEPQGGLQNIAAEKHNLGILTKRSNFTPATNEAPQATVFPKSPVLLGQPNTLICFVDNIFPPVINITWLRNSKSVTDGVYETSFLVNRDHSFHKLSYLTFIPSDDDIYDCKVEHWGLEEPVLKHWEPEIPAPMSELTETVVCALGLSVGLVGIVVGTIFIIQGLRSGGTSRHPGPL
T2 sequence (P01921 28-265): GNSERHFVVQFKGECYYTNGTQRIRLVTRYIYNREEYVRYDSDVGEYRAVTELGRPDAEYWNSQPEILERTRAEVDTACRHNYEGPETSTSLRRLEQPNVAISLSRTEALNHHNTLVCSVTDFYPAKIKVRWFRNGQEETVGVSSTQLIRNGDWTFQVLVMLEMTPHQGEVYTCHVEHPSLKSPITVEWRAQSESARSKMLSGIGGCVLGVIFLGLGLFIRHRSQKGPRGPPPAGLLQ

IE^d = target: T3, IE^d (Mus musculus, UniProt P01904+P01915); test: biochemical; format: binding
T3 construct: Various cell lines were used as sources of purified human and mouse class II molecules; endogenous in cells; host or cells: A20
T3 sequence (P01904 26-255): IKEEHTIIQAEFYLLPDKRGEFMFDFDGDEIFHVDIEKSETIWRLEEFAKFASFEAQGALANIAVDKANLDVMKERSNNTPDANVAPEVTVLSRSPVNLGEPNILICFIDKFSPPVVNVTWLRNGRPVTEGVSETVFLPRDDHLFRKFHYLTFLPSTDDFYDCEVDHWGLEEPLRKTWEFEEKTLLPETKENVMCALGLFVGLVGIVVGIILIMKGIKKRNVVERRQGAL
T3 sequence (P01915 27-264 limits assumed): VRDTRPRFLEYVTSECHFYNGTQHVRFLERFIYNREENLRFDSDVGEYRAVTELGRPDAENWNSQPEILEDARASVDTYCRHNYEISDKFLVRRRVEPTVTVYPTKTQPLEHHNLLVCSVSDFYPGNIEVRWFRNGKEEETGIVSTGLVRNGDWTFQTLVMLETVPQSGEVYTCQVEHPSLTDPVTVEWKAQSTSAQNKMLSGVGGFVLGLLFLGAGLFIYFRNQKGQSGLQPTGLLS

IA^s = target: T4, IA^s (Mus musculus, UniProt P06345+P14437); test: biochemical; format: binding; details: Table III; read-out: Capacity to bind purified IA^s, IC50
T4 construct: Various cell lines were used as sources of purified human and mouse class II molecules; endogenous in cells; host or cells: LS102.9
T4 sequence (P14437 1-233): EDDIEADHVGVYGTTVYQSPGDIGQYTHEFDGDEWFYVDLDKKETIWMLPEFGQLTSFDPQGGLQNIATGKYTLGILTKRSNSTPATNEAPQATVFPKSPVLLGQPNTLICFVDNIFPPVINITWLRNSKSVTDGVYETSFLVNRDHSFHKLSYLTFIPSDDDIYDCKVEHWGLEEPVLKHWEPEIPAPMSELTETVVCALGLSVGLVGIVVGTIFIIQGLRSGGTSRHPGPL
T4 sequence (P06345 28-263): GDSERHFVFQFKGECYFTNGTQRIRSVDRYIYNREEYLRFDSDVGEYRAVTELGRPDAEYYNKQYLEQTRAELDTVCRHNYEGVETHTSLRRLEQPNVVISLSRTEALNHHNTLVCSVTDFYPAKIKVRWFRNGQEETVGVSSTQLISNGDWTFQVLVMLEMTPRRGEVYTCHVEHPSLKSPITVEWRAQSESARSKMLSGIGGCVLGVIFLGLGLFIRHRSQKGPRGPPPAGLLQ

IA^k = target: T5, IA^k (Mus musculus, UniProt P01910+P06343); test: biochemical; format: binding; details: Table III; read-out: Capacity to bind purified IA^k, IC50
T5 construct: Various cell lines were used as sources of purified human and mouse class II molecules; endogenous in cells; host or cells: CH12

DR7 = details: read-out: PADRE Class II Binding Affinities DR7; Table IX; listed as 965.012
C57BL/6J (H-2^b+) mice = details: mouse, in vivo, sc
[1] = PADRE Class II Binding Affinities DR1, Table IX
[2] = Table III, read-out: Capacity to bind purified IE^d, IC50

T5 sequence (P01910 24-256): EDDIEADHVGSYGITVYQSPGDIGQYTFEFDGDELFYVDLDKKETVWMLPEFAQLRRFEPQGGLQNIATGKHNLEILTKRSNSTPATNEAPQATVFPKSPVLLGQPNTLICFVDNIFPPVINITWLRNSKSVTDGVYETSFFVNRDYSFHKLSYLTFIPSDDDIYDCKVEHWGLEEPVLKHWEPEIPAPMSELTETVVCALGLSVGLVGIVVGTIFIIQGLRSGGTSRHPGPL
T5 sequence (P06343 28-263): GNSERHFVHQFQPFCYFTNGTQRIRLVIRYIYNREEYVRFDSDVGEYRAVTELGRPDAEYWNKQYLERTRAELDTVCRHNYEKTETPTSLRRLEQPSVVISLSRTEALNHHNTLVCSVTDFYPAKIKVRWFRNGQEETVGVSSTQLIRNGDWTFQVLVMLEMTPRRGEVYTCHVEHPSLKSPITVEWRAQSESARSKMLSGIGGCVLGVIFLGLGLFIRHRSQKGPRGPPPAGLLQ
Chain of DR2w2a (P01903 26-254): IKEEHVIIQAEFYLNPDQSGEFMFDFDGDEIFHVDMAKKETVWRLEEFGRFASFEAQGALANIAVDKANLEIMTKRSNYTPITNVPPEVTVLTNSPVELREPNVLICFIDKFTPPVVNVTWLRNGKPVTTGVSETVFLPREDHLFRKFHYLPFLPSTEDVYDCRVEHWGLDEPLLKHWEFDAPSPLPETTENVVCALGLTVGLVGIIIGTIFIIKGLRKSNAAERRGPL
Chain of DR2w2a (Q30154 30-266): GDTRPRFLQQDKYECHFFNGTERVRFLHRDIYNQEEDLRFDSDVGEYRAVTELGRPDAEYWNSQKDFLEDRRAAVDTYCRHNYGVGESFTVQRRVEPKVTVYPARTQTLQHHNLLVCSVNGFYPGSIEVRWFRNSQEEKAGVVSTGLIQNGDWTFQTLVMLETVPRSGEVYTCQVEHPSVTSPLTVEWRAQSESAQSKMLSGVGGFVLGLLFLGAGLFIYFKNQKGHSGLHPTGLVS

## CC(C)C[C@H](NC(=O)[C@@H](NC(=O)[C@H](Cc1ccc(O)cc1)NC(=O)[C@H](C)NC(=O)[C@H](C)NC(=O)[C@@H](NC(=O)[C@H](CC1CCCCC1)NC(=O)[C@H](CCCCN)NC(=O)[C@@H](C)N)C(C)C)[C@@H](C)O)C(=O)N[C@@H](CCCCN)C(=O)N[C@@H](C)C(=O)N[C@@H](C)C(=O)N[C@H](C)C(N)=O [Peptide 965.091]
Human PBMC T cell lines
  Donors with significant (>10,000 cpm) T cell response / donors tested, second stimulation: 4/5
  Donors with significant (>10,000 cpm) T cell response / donors tested, third stimulation: 4/5
DR5; listed as 965.092
  IC50: 6.5 nM
DR1; PADRE Class II Binding Affinities DR1
  IC50: 0.8 nM
DR1; [1]
  IC50: 0.6 nM
DR3
  IC50: 450 nM and 3210 nM
DR4w4
  IC50: 1 nM
DR2w2a
  IC50: 7.4 nM and 6.4 nM

## CC[C@H](C)[C@H](NC(=O)[C@@H]1CCCN1C(=O)[C@H](C)NC(=O)[C@H](CC(N)=O)NC(=O)[C@@H]1CCCN1C(=O)[C@@H]1CCCN1C(=O)[C@H](CCCNC(=N)N)NC(=O)[C@H](Cc1ccc(O)cc1)NC(=O)[C@H](C)NC(=O)[C@@H]1CCCN1C(=O)[C@@H]1CCCN1C(=O)[C@@H](N)[C@@H](C)O)C(=O)N[C@@H](CC(C)C)C(=O)O [HBVc 128-140, reference compound]
IE^k
  IC50: > 10000 nM

## CC(C)C[C@H](NC(=O)[C@H](Cc1c[nH]c2ccccc12)NC(=O)[C@H](CCCCN)NC(=O)CNC(=O)[C@H](CC(C)C)NC(=O)[C@H](CO)NC(=O)[C@@H](N)Cc1c[nH]cn1)C(=O)NCC(=O)N[C@@H](Cc1c[nH]cn1)C(=O)N1CCC[C@H]1C(=O)N[C@@H](CC(=O)O)C(=O)N[C@@H](CCCCN)C(=O)N[C@@H](Cc1ccccc1)C(=O)O [PLP 139-151]
IA^b
  IC50: > 3100 nM
IA^d
  IC50: > 10000 nM
IE^d; [2]
  IC50: > 10000 nM
IA^s
  IC50: 86 nM
IA^k
  IC50: > 10000 nM

## CC[C@H](C)[C@H](NC(=O)CNC(=O)[C@H](Cc1ccc(O)cc1)NC(=O)[C@H](CC(=O)O)NC(=O)[C@@H](NC(=O)[C@H](CO)NC(=O)CNC(=O)[C@H](CC(=O)O)NC(=O)[C@@H](NC(=O)[C@@H](N)CC(N)=O)[C@@H](C)O)[C@@H](C)O)C(=O)N[C@@H](CC(C)C)C(=O)N[C@@H](CCC(N)=O)C(=O)N[C@H](C(=O)N[C@@H](CC(N)=O)C(=O)N[C@@H](CO)C(=O)N[C@@H](CCCNC(=N)N)C(=O)O)[C@@H](C)CC [HEL46-61]
IA^b
  IC50: 7000 nM
IA^d
  IC50: 1220 nM
IE^d; [2]
  IC50: 8500 nM
IA^s
  IC50: > 10000 nM
IA^k
  IC50: 20 nM

## CC(C)C[C@H](NC(=O)[C@@H](NC(=O)[C@H](CC(N)=O)NC(=O)[C@H](C)NC(=O)[C@H](CCCCN)NC(=O)[C@@H](NC(=O)[C@H](CC1CCCCC1)NC(=O)[C@H](CCCCN)NC(=O)[C@@H](C)N)C(C)C)[C@@H](C)O)C(=O)N[C@@H](CCCCN)C(=O)N[C@@H](C)C(=O)N[C@@H](C)C(=O)N[C@H](C)C(N)=O [Peptide 965.011]
DR5
  IC50: 11.8 nM
DR5; listed as 965.012
  IC50: 2.2 nM
DR7
  IC50: 781 nM
DR1; [1]
  IC50: 1.5 nM and 1.3 nM
DR3
  IC50: 592 nM and 4590 nM
DR2w2a
  IC50: 12.5 nM and 10.5 nM

## CC[C@H](C)[C@H](NC(=O)CNC(=O)[C@@H](NC(=O)[C@H](Cc1ccccc1)NC(=O)[C@H](CCCCN)NC(=O)[C@H](CO)NC(=O)[C@H](CC(N)=O)NC(=O)[C@H](C)NC(=O)[C@H](CCCCN)NC(=O)[C@@H](NC(=O)[C@H](Cc1ccc(O)cc1)NC(=O)[C@@H](N)CCC(N)=O)[C@@H](C)CC)[C@@H](C)CC)C(=O)N[C@H](C(=O)N[C@@H](CCC(=O)O)C(=O)O)[C@@H](C)O [Tet Tox 830-843, reference compound]
IA^b
  Capacity to bind purified IA^b, IC50: did not bind IA^b appreciably
Human PBMC T cell lines
  Donors with significant (>10,000 cpm) T cell response / donors tested, second stimulation: 3/12
  Donors with significant (>10,000 cpm) T cell response / donors tested, third stimulation: 7/12
C57BL/6J (H-2^b+) mice
  T cell proliferative response of primed lymph node cells: unable to generate a specific T cell proliferative response

## CC[C@H](C)[C@H](N)C(=O)N[C@@H](CO)C(=O)N[C@@H](CCC(N)=O)C(=O)N[C@@H](C)C(=O)N[C@H](C(=O)N[C@@H](Cc1c[nH]cn1)C(=O)N[C@@H](C)C(=O)N[C@@H](C)C(=O)N[C@@H](Cc1c[nH]cn1)C(=O)N[C@@H](C)C(=O)N[C@@H](CCC(=O)O)C(=O)N[C@H](C(=O)N[C@@H](CC(N)=O)C(=O)N[C@@H](CCC(=O)O)C(=O)O)[C@@H](C)CC)C(C)C [Ova 323-336, ISQAVHAAHAEINE]
IE^d; [2]
  IC50: > 10000 nM
IA^s
  IC50: 1040 nM
IA^k
  IC50: 1000 nM

## CC[C@H](C)[C@H](NC(=O)[C@H](C)NC(=O)[C@H](CCCCN)NC(=O)[C@H](CC(C)C)NC(=O)[C@H](CCCNC(=N)N)NC(=O)[C@H](CCCNC(=N)N)NC(=O)[C@H](C)NC(=O)[C@H](CC(=O)O)NC(=O)[C@H](CCC(=O)O)NC(=O)[C@H](CC(C)C)NC(=O)[C@@H](N)Cc1ccc(O)cc1)C(=O)N[C@@H](Cc1ccc(O)cc1)C(=O)N[C@@H](CCC(=O)O)C(=O)N[C@@H](CCCCN)C(=O)N[C@@H](CCCCN)C(=O)N[C@@H](CCCCN)C(=O)O [Iambda rep 12-26]
IA^b
  IC50: > 10000 nM
IA^d
  IC50: 1100 nM
IE^d; Allele IEd, read-out: Avg. IC50 of assay standard
  IC50: 170 nM
IA^s
  IC50: > 10000 nM
IA^k
  IC50: > 10000 nM
